# Reference: the NIST ThermoML archive (doi:10.1021/je1002434)
# Numbers after ± are expanded uncertainties.
# What was measured:
# [1] = for surface tension liquid-gas: Maximal bubble pressure; for mass density: 101 kPa, Liquid, Buoyancy - hydrostatic balance with magnetic suspension - one sinker
# [2] = wn = mass fraction of the nth substance listed; settings: for surface tension liquid-gas: Maximal bubble pressure; for mass density: 101 kPa, Liquid, Buoyancy - hydrostatic balance with magnetic suspension - one sinker
compound,measurement,setting,value
CCCn1cc[n+](C)c1.N[C@@H](CCC(=O)O)C(=O)[O-],surface tension liquid-gas,[1]; 298.15 K,60.8 ± 0.5 mN/m
same,mass density,[1]; 298.15 K,1229.2 ± 0.6 kg/m3
same,surface tension liquid-gas,[1]; 318.15 K,54.7 ± 0.4 mN/m
same,mass density,[1]; 318.15 K,1218.6 ± 0.6 kg/m3
same,surface tension liquid-gas,[1]; 323.15 K,53.2 ± 0.4 mN/m
same,mass density,[1]; 323.15 K,1215.9 ± 0.6 kg/m3
same,surface tension liquid-gas,[1]; 328.15 K,51.8 ± 0.4 mN/m
same,mass density,[1]; 328.15 K,1213.2 ± 0.6 kg/m3
same,surface tension liquid-gas,[1]; 333.15 K,50.1 ± 0.4 mN/m
same,mass density,[1]; 333.15 K,1210.6 ± 0.6 kg/m3
same,surface tension liquid-gas,[1]; 338.15 K,48.7 ± 0.4 mN/m
same,mass density,[1]; 338.15 K,1208.2 ± 0.6 kg/m3
same,mass density,[1]; 343.15 K,1205.3 ± 0.6 kg/m3
CCCn1cc[n+](C)c1.N[C@@H](CCC(=O)O)C(=O)[O-] + O,surface tension liquid-gas,"[2]; 318.15 K, w2 = 0.0089",55.2 ± 0.5 mN/m
same,surface tension liquid-gas,"[2]; 318.15 K, w2 = 0.012",55.4 ± 0.5 mN/m
same,surface tension liquid-gas,"[2]; 318.15 K, w2 = 0.0151",55.5 ± 0.5 mN/m
same,surface tension liquid-gas,"[2]; 318.15 K, w2 = 0.0192",55.7 ± 0.5 mN/m
same,surface tension liquid-gas,"[2]; 318.15 K, w2 = 0.0222",56 ± 0.5 mN/m
same,mass density,"[2]; 318.15 K, w2 = 0.00841",1204.8 ± 0.6 kg/m3
same,mass density,"[2]; 318.15 K, w2 = 0.01002",1202 ± 0.5 kg/m3
same,mass density,"[2]; 318.15 K, w2 = 0.01126",1200.3 ± 0.5 kg/m3
same,mass density,"[2]; 318.15 K, w2 = 0.01281",1197.4 ± 0.5 kg/m3
same,mass density,"[2]; 318.15 K, w2 = 0.01404",1195.6 ± 0.5 kg/m3
same,surface tension liquid-gas,"[2]; 323.15 K, w2 = 0.0089",53.8 ± 0.5 mN/m
same,surface tension liquid-gas,"[2]; 323.15 K, w2 = 0.012",54 ± 0.5 mN/m
same,surface tension liquid-gas,"[2]; 323.15 K, w2 = 0.0151",54.2 ± 0.5 mN/m
same,surface tension liquid-gas,"[2]; 323.15 K, w2 = 0.0192",54.4 ± 0.5 mN/m
same,surface tension liquid-gas,"[2]; 323.15 K, w2 = 0.0222",54.7 ± 0.5 mN/m
same,mass density,"[2]; 323.15 K, w2 = 0.00841",1202.2 ± 0.5 kg/m3
same,mass density,"[2]; 323.15 K, w2 = 0.01002",1199.3 ± 0.5 kg/m3
same,mass density,"[2]; 323.15 K, w2 = 0.01126",1197.6 ± 0.5 kg/m3
same,mass density,"[2]; 323.15 K, w2 = 0.01281",1194.7 ± 0.5 kg/m3
same,mass density,"[2]; 323.15 K, w2 = 0.01404",1193 ± 0.5 kg/m3
same,surface tension liquid-gas,"[2]; 328.15 K, w2 = 0.0089",52.5 ± 0.5 mN/m
same,surface tension liquid-gas,"[2]; 328.15 K, w2 = 0.012",52.6 ± 0.5 mN/m
same,surface tension liquid-gas,"[2]; 328.15 K, w2 = 0.0151",52.8 ± 0.5 mN/m
same,surface tension liquid-gas,"[2]; 328.15 K, w2 = 0.0192",53.1 ± 0.5 mN/m
same,surface tension liquid-gas,"[2]; 328.15 K, w2 = 0.0222",53.4 ± 0.5 mN/m
same,mass density,"[2]; 328.15 K, w2 = 0.00841",1199.5 ± 0.5 kg/m3
same,mass density,"[2]; 328.15 K, w2 = 0.01002",1196.7 ± 0.5 kg/m3
same,mass density,"[2]; 328.15 K, w2 = 0.01126",1195 ± 0.5 kg/m3
same,mass density,"[2]; 328.15 K, w2 = 0.01281",1192 ± 0.5 kg/m3
same,mass density,"[2]; 328.15 K, w2 = 0.01404",1190.4 ± 0.5 kg/m3
same,surface tension liquid-gas,"[2]; 333.15 K, w2 = 0.0089",50.7 ± 0.5 mN/m
same,surface tension liquid-gas,"[2]; 333.15 K, w2 = 0.012",51.2 ± 0.5 mN/m
same,surface tension liquid-gas,"[2]; 333.15 K, w2 = 0.0151",51.4 ± 0.5 mN/m
same,surface tension liquid-gas,"[2]; 333.15 K, w2 = 0.0192",51.7 ± 0.5 mN/m
same,surface tension liquid-gas,"[2]; 333.15 K, w2 = 0.0222",51.9 ± 0.5 mN/m
same,mass density,"[2]; 333.15 K, w2 = 0.00841",1196.9 ± 0.5 kg/m3
same,mass density,"[2]; 333.15 K, w2 = 0.01002",1194 ± 0.5 kg/m3
same,mass density,"[2]; 333.15 K, w2 = 0.01126",1192.3 ± 0.5 kg/m3
same,mass density,"[2]; 333.15 K, w2 = 0.01281",1189.4 ± 0.5 kg/m3
same,mass density,"[2]; 333.15 K, w2 = 0.01404",1187.7 ± 0.5 kg/m3
same,surface tension liquid-gas,"[2]; 338.15 K, w2 = 0.0089",49.4 ± 0.5 mN/m
same,surface tension liquid-gas,"[2]; 338.15 K, w2 = 0.012",49.9 ± 0.5 mN/m
same,surface tension liquid-gas,"[2]; 338.15 K, w2 = 0.0151",50.2 ± 0.5 mN/m
same,surface tension liquid-gas,"[2]; 338.15 K, w2 = 0.0192",50.4 ± 0.5 mN/m
same,surface tension liquid-gas,"[2]; 338.15 K, w2 = 0.0222",50.7 ± 0.5 mN/m
same,mass density,"[2]; 338.15 K, w2 = 0.00841",1194.3 ± 0.5 kg/m3
same,mass density,"[2]; 338.15 K, w2 = 0.01002",1191.4 ± 0.5 kg/m3
same,mass density,"[2]; 338.15 K, w2 = 0.01126",1189.6 ± 0.5 kg/m3
same,mass density,"[2]; 338.15 K, w2 = 0.01281",1186.7 ± 0.5 kg/m3
same,mass density,"[2]; 338.15 K, w2 = 0.01404",1185 ± 0.5 kg/m3
same,mass density,"[2]; 343.15 K, w2 = 0.00841",1191.6 ± 0.5 kg/m3
same,mass density,"[2]; 343.15 K, w2 = 0.01002",1188.7 ± 0.5 kg/m3
same,mass density,"[2]; 343.15 K, w2 = 0.01126",1187 ± 0.5 kg/m3
same,mass density,"[2]; 343.15 K, w2 = 0.01281",1184.1 ± 0.5 kg/m3
same,mass density,"[2]; 343.15 K, w2 = 0.01404",1182.4 ± 0.5 kg/m3
